Patent publication US4965280A, “Antifungal carbinols” (E. I. Du Pont de Nemours and Company, priority 1989, dated 1990)
Converted amounts (≈) assume the structure as drawn. Read-outs that look alike come from different tables or passages of the source.

Assays:
Rhizoctonia solani = assay: Example F rice sheath blight; type: in vivo; conditions: Rhizoctonia solani, 144 h, read-out: disease control rating, Ex. F
Method: (§1) The test compounds were dissolved in acetone in an amount equal to 6% of the final volume and then suspended at a concentration of 100 or 20 ppm in purified water containing 250 ppm of the surfactant TREM 014 (polyhydric alcohol esters). This suspension was sprayed to the point of run-off on rice seedlings.

Venturia inaequalis = assay: Example A apple scab; type: in vivo; conditions: read-out: disease control rating, Ex. A
Method: as §1, with “apple seedings.” for “rice seedlings.”

Plasmorpara viticola = assay: Example I grape downy mildew; type: in vivo; conditions: read-out: disease control rating, Ex. I
Method: as §1, with “grape” for “rice”

[1] = tested on: Cercosporidium personatum; assay: Example B Peanut Late Leafspot; type: in vivo; conditions: Nothopassalora personata, read-out: disease control rating, Ex. B
Method: as §1, with “peanut” for “rice”

Pythium aphanadermatum = assay: Example J cucumber damping off; type: in vivo; parameters: key to phytotoxicity entry, Ex. J: P: disease control was not measured due to phytoxicity; conditions: 5 kg/ha
Method: […] Seeds and soil were then inoculated with a mixture of sand, cereal and mycelium of the fungus Pythium aphanadermatum, causal agent of cucumber damping off, and incubated in a growth chamber at 30° C. for 14 days. Disease ratings were then made.

[2] = tested on: Candida albicans ATCC 11651; assay: In vitro antifungal MIC, microtiter broth dilution; conditions: Candida albicans, ATCC11651, 24 h, read-out: MIC values, C. albicans, 30°, 24 hours
[3] = tested on: Erysiphe graminis f. sp. tritici; assay: Example D wheat powdery mildew; type: in vivo; conditions: Blumeria graminis, 144 h, read-out: disease control rating, Ex. D
Method: as §1, with “wheat” for “rice”

Puccinia recondita = assay: Example G wheat leaf rust; type: in vivo; conditions: read-out: disease control rating, Ex. G
Phytophthora infestans = assay: whole plant or invertebrate; type: in vivo; conditions: Phytophthora infestans, in Solanum lycopersicum, read-out: disease control rating, Ex. H, 100 PPM
Botrytis cinerea = assay: Example C bean grey mold; type: in vivo; conditions: Botrytis cinerea, 24 h, read-out: disease control rating, Ex. C
Method: as §1, with “broad bean” for “rice”

[4] = tested on: Candida albicans ATCC 11651; assay: In vivo systemic Candida infection in mice, primary assay; parameters: species or system Candida albicans; CF-1 female mice; conditions: Candida albicans, 150 mg/kg per day, read-out: % Survival
Text: The […] activity of test compounds is based on the percent (%) survival of infected animals receiving test or standard agent compared to that in an infected untreated group (Table 6). The in vivo assays are chronic systemic infections lethal to mice within 7 days post infection, [J. Barnes, et al. Lab Investigation, 49 460-467 (1963), and T. Rogers and E. Balish, Infection and Immunity, 14 33-38 (1976)].
Candida albicans ATCC 11651, from a frozen stock culture (10^9 organisms/ml) maintained at -70°, is diluted in saline to 1×10^7 organisms/ml and 0.2 ml inoculated intravenously (caudal vein) into 20.0 gm CF-1 female mice (Charles River).
Test compounds are routinely solubilized in 0.25% (w/v) methylcellulose (Methocel®) but for those compounds difficult to solubilize 10% (w/v) Emulophor® (EL620 GAF Corp.) is used. The standard antifungal agents, amphotericin B (Fungizone®) in water and ketoconazole (Nizoral®) in Methocel®, are administered at 1.0 mg/kg/day and 150 mg/kg/day, respectively.
In a primary assay, mice (10 per group) are infected with C. albicans, and receive test compounds at 50 or 150 mg/kg/day via the subcutaneous route. Animals are dosed with the test compound at 1 and 6 hour post-infection and then once daily for the next three days. Survival of mice in each group is recorded for 21 days.
Compounds which protect ≥70% of the infected animals for 14 days at a dose 150 mg/kg/day or less are viewed as active.

Pyricularia oryzae = assay: whole plant or invertebrate; type: in vivo; conditions: Pyricularia oryzae, 120 h; for pest or weed control at 100 ppm: read-out: disease control rating, Ex. E, 100 PPM; for pest or weed control at 20 ppm: read-out: disease control rating, Ex. E, 20 PPM
[5] = tested on: Aspergillus fumigatus ATCC 28214; assay: In vitro antifungal MIC, microtiter broth dilution; conditions: Aspergillus fumigatus, ATCC28214, 24 h, read-out: MIC values, A. fumigatus, 30°, 24 hours
Method: In vitro activity (Table 5) is expressed in terms of the minimal inhibitory concentration (MIC) of the test compound which inhibits the growth of yeasts and fungi.
The target organisms, Candida albicans ATCC 11651 and Aspergillus fumigatus ATCC 28214 are standardized, [V. Bezjak, J. Clinical Micro., 21 509-512 (1984)], to a concentration of 10^7 organisms/ml and maintained at -70° until use. Test compounds are solubilized in dimethyl sulfoxide (DMSO) and diluted in Eagle's Minimum Essential Medium (EMEM) broth to achieve a final concentration of 200 μg/ml. Stock solutions of standard antifungal agents are stored at -70° and diluted in EMEM as required.
The in vitro assay utilizes a microtiter broth dilution technique [L. Polonelli and G. Morace, Mycopathologia, 86, 21-28 (1984)] and C. […] The appropriate wells are inoculated with the required organism (C. albicans at 1×10^4 organisms/ml and A. fumigatus at 5×10^5 organisms/ml) and the assay incubated at 30° for 24 hours.

Structure (SMILES) | pest or weed control at 100 ppm (Rhizoctonia solani) | pest or weed control at 100 ppm (Venturia inaequalis) | pest or weed control at 100 ppm (Plasmorpara viticola) | pest or weed control at 100 ppm [1] | MIC [2] | pest or weed control at 100 ppm [3] | pest or weed control at 100 ppm (Phytophthora infestans) | pest or weed control at 100 ppm (Botrytis cinerea) | responders at 150 mg/kg ([4]; ATCC11651, 168 h, day 7) | responders at 150 mg/kg ([4]; ATCC11651, 336 h, day 14) | responders at 150 mg/kg ([4]; ATCC11651, 504 h, day 21) | pest or weed control at 100 ppm (Pyricularia oryzae) | MIC [5] | pest or weed control at 20 ppm (Rhizoctonia solani) | pest or weed control at 20 ppm (Venturia inaequalis) | pest or weed control at 20 ppm [1] | pest or weed control at 20 ppm [3] | pest or weed control at 20 ppm (Puccinia recondita) | pest or weed control at 20 ppm (Botrytis cinerea) | pest or weed control at 20 ppm (Pyricularia oryzae) | further results
C=C(c1ccc(C)cc1)C(O)(Cn1cncn1)c1ccc(F)cc1 (stereo not drawn) [Example 721] | 100% | 73% | 0% | 89% | 0.4 µg/mL (≈ 1.24 µM) | 94% | 0% | 95% | 100% | 30% | 30% | 18% | 12.5 µg/mL (≈ 38.7 µM) | – | – | – | – | – | – | – | phytotoxicity entry, Ex. J (Pythium aphanadermatum): P; pest or weed control at 100 ppm (Puccinia recondita): 100%
C=C(CN1CC(C)OC(C)C1)C(O)(Cn1cncn1)c1ccc(F)cc1 (stereo not drawn) [Example 477] | 48% | 95% | 0% | 100% | > 100 µg/mL | 100% | 0% | 76% | – | – | – | 48% | – | – | – | – | – | – | – | – | phytotoxicity entry, Ex. J (Pythium aphanadermatum): P; pest or weed control at 100 ppm (Puccinia recondita): 100%
C=C(c1cccc(Cl)c1)C(O)(Cn1cncn1)c1ccc(F)cc1F (stereo not drawn) [Example 42] | 41% | – | 23% | – | 0.03 µg/mL (≈ 0.0829 µM) | 100% | 0% | 100% | 80% | 80% | 50% | 31% | 6.3 µg/mL (≈ 17.4 µM) | 0% | 29% | 100% | 98% | 100% | 38% | 15% | –
C=C(c1cccc(Cl)c1)C(O)(Cn1cncn1)c1ccccc1F (stereo not drawn) [Example 47] | 47% | – | 25% | – | 0.03 µg/mL (≈ 0.0873 µM) | – | 0% | 89% | 90% | 80% | 30% | 31% | 1.6 µg/mL (≈ 4.65 µM) | 0% | 93% | 100% | 98% | 100% | 26% | 15% | –
C=C(c1ccc(F)cc1)C(O)(Cn1cncn1)c1cccc(C(F)(F)F)c1 (stereo not drawn) [Example 661] | 70% | – | 85% | – | 1.6 µg/mL (≈ 4.24 µM) | – | 5% | 56% | 50% | 20% | 0% | 0% | 100 µg/mL (≈ 265 µM) | 10% | 81% | 79% | 62% | 100% | 61% | 0% | –
C=C(c1ccc(F)cc1)C(O)(Cn1cncn1)c1ccccc1 (stereo not drawn) [Example 656] | 50% | 93% | 20% | 100% | ≤ 0.4 µg/mL | 97% | 0% | 88% | 100% | 90% | 40% | 0% | 12.5 µg/mL (≈ 40.4 µM) | – | – | – | – | – | – | – | pest or weed control at 5000 g/ha (Pythium aphanadermatum; Pythium, 336 h, read-out: disease control rating, Ex. J): 0%; pest or weed control at 100 ppm (Puccinia recondita): 100%
C=C(c1ccc(Cl)cc1)C(O)(Cn1cncn1)c1ccc(Cl)c(Cl)c1 (stereo not drawn) [Example 675] | 62% | – | 69% | – | 0.1 µg/mL (≈ 0.253 µM) | – | 0% | 30% | 100% | 60% | 0% | 0% | 25 µg/mL (≈ 63.3 µM) | 0% | 40% | 0% | 44% | 16% | 42% | 0% | –
C=C(c1ccc(SC)cc1)C(O)(Cn1cncn1)c1ccc(F)cc1F (stereo not drawn) [Example 164] | 0% | – | 0% | – | 0.03 µg/mL (≈ 0.0803 µM) | – | 8% | 84% | 100% | 80% | 70% | 15% | 1.6 µg/mL (≈ 4.28 µM) | 0% | 82% | 100% | 88% | 100% | 57% | 5% | –
C=C(c1ccc(SC)cc1)C(O)(Cn1cncn1)c1ccc(F)cc1 (stereo not drawn) [Example 163] | 0% | – | 0% | – | 0.03 µg/mL (≈ 0.0844 µM) | – | 0% | 95% | 90% | 60% | 40% | 5% | 12.5 µg/mL (≈ 35.2 µM) | 0% | 0% | 81% | 23% | 99% | 58% | 5% | –
